pIC50, pKi: −log10 of the molar value. Active and inactive are the calls of the source. The rule behind the calls is not given here.
Tests used:
Adenosine receptor A2a [1] = biological target: Adenosine receptor A2a (Rattus norvegicus, UniProt P30543); experiment: Antagonist activity at adenosine A2A receptor in 5-HT-treated Wistar rat femoral vein assessed as inhibition of 2-octyn-1-yladenosine-induced vasodilation incubated for 10 mins prior to addition of 5-HT
Mus musculus [2] = experiment: Anticataleptogenic activity in ddY mouse assessed as reduction in haloperidol-induced catelepsy at 3 mg/kg, po measured after 1 to 7 hrs; assay type: functional, organism-based; design: dose 3 mg/kg
Adenosine receptor A2a [3] = biological target: Adenosine receptor A2a (Homo sapiens, UniProt P29274); experiment: biochemical
Description: Displacement of [3H]-CGS-21680 from human adenosine A2A receptor expressed in HEK293 cells after 90 mins

Rattus norvegicus [4] = experiment: Antiparkinsonian activity in unilateral 6-hydroxydopamine-lesioned Sprague-Dawley rat assessed as potentiation of L-DOPA-induced turning behavior at 3 mg/kg, po measured for 15 mins; assay type: functional, organism-based; design: dose 3 mg/kg
Rattus norvegicus [5] = experiment: Antiparkinsonian activity in unilateral 6-hydroxydopamine-lesioned Sprague-Dawley rat assessed as induction of stereotyped behavior at 3 mg/kg, po measured for 15 mins; assay type: functional, organism-based; design: dose 3 mg/kg
Mus musculus [6] = experiment: Anticataleptogenic activity in po dosed ddY mouse assessed as reduction in haloperidol-induced catelepsy measured after 5 hrs; assay type: functional; conditions: for minimal effective dose: read-out: MED
[7] = biological target: Adenosine receptor A2a (Rattus norvegicus) (UniProt P30543); experiment: Potency index, ratio of istradefylline IC50 to compound IC50 for adenosine A2A receptor in 5-HT-treated Wistar rat femoral vein assessed as inhibition of 2-octyn-1-yladenosine-induced vasodilation
Sequence of Adenosine receptor A2a (Rattus norvegicus) (P30543 whole entry): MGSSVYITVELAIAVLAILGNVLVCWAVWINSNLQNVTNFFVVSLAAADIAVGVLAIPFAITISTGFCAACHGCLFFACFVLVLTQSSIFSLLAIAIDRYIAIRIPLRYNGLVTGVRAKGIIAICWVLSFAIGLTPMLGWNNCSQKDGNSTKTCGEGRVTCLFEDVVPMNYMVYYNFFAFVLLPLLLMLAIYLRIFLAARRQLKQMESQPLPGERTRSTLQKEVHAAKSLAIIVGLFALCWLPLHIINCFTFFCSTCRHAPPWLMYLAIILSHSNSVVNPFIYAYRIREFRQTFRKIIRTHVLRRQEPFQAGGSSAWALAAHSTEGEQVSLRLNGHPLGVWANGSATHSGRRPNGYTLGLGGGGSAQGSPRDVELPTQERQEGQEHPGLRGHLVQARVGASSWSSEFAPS

Sequence of Adenosine receptor A2a (Rattus norvegicus, UniProt P30543) (P30543 whole entry): as above
Sequence of Adenosine receptor A2a (Homo sapiens, UniProt P29274) (P29274 whole entry): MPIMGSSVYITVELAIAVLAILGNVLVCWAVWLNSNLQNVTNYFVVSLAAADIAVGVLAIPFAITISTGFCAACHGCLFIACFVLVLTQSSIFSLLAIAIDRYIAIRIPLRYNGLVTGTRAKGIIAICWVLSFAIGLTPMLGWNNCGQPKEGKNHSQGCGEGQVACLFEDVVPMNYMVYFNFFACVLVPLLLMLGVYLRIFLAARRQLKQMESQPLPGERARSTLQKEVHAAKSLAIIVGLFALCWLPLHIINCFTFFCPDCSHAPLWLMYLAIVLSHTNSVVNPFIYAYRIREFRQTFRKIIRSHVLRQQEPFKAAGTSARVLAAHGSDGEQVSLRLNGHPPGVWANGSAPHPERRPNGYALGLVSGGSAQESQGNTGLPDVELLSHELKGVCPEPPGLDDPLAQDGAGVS

Row | SMILES | pIC50 (Adenosine receptor A2a [1]) | also measured
1 | CCCCCCC#Cc1nc(N)c2ncn(CC)c2n1 | 5.17 | 
2 | C#CCn1cnc2c(N)nc(C#CC3(O)CCCCC3)nc21 | 7.01 | 
3 | C#CCn1c(-c2cccc(F)c2)nc2c(N)nc(C#CCCCCCC)nc21 | 7.64 | 
4 | CCCCCCC#Cc1nc(N)c2ncn(Cc3ccccc3)c2n1 | < 5.00 | 
5 | CCCCCCC#Cc1nc(N)c2ncn(CCC)c2n1 | < 5.00 | 
6 | C#CCn1c(Br)nc2c(N)nc(C#CC3(O)CCCCC3)nc21 | 9.30 | 
7 | CCCCCCC#Cc1nc(N)c2ncn(CCO)c2n1 | < 5.00 | 
8 | C#CCn1c(-c2ccccc2)nc2c(N)nc(C#CCCCCCC)nc21 | 7.12 | 
9 | C#CCn1c(-c2ccco2)nc2c(N)nc(C#CCCCCCC)nc21 | 8.44 | 
10 | CCCCCCC#Cc1nc(N)c2ncn(C)c2n1 | 5.05 | 
11 | CCCCCCC#Cc1nc(N)c2ncn(C3CCCC3)c2n1 | < 5.00 | 
12 | C#CCn1cnc2c(N)nc(C#CCCCCCC)nc21 | 6.70 | 
13 | C#CCn1c(Cl)nc2c(N)nc(C#CCCCCCC)nc21 | 8.22 | 
14 | C#CCn1c(Br)nc2c(N)nc(C#CCCCCCC)nc21 | 8.29 | Activity (Mus musculus [2]): Active; pKi (Adenosine receptor A2a [3]): 9.25; Activity (Rattus norvegicus [4]): Active; Activity (Rattus norvegicus [5]): inactive; Activity (Mus musculus [6]): Dose-dependent effect; minimal effective dose (Mus musculus [6]): 3 mg/kg
15 | C=CCn1cnc2c(N)nc(C#CCCCCCC)nc21 | < 5.00 | 
16 | CCCCCCC#Cc1nc(N)c2ncn(CC#N)c2n1 | < 5.00 | 
17 | C#CCn1c(Cl)nc2c(N)nc(C#CC3(O)CCCCC3)nc21 | 8.52 | 
18 | C#CCn1c(-c2ccco2)nc2c(N)nc(C#CC3(O)CCCCC3)nc21 | 9.40 | Ratio IC50 [7]: 570
19 | CCn1c(=O)c2c(nc(/C=C/c3ccc(OC)c(OC)c3)n2C)n(CC)c1=O [ISTRADEFYLLINE] |  | Activity (Mus musculus [2]): Active; Activity (Mus musculus [6]): Dose-dependent effect; minimal effective dose (Mus musculus [6]): 3 mg/kg
20 | C#CCn1c(-n2nccn2)nc2c(N)nc(C#CCCCCCC)nc21 | 8.72 | 

From ChEMBL document CHEMBL3286130, “8-Substituted 2-alkynyl-N(9)-propargyladenines as A2A adenosine receptor antagonists” (Bioorg Med Chem, 2014)
